Measured values reported in patent publication US20260166021A1, “POLYMORPHIC FORMS OF A SOLUBLE EPOXIDE HYDROLASE INHIBITOR AND FORMULATIONS THEREOF” (EicOsis, LLC, priority 2022, published 2026).

Key:
[1] = PEG-stability analyses: Form C/Form D mixture slurried in PEG300 with water; assay type: physicochemical; settings: H2O:PEG 300 = 50%:50%
Procedure: Of particular interest was whether Form D would convert to a hydrate (e.g., Form C) in the presence of water. To investigate the critical water concentration for phase interconversion between Pattern C and D, a series experiments were designed (as summarized in TABLE 16). A 1:1 mixture of Forms C and D was prepared and slurried in PEG 300 with different levels of water concentrations. Phase transformations were monitored with XRD, and are summarized in FIG. 85, which (from top to bottom) provides XRD of Form C, Form D, the mixture following incubation in PEG300 containing 75% water, the mixture following incubation in PEG300 containing 50% water, the mixture following incubation in PEG300 containing 25% water, the mixture following incubation in PEG300 containing 10% water, and the mixture following incubation in PEG300 containing 5% water. […] Form D is the stable form in PEG300 with less than 50% water.

[2] = Crystallization of Formula (I) in single- and binary-solvent systems (resultant XRD pattern)
Procedure: Formula (I) crystallization was first analyzed in single-solvent systems lacking antisolvent. […] Fast cooling was performed by placing the vials in a 4° C. refrigerator for 24 hours, while slow cooling was performed by decreasing the temperatures of the vials by 20° C./h with stirring. The resulting solids were isolated by centrifuge filtration through […] centrifuge filters. When solids were not produced, the solution was evaporated under nitrogen as an additional attempt to obtain solid. All obtained solids were analyzed by XRD to determine the solid pattern.
Formula (I) recrystallization was then tested with binary-solvent systems containing water, n-heptane, or c-hexane as antisolvent. […] Anti solvents were added drop-wise at the same temperature until precipitate was observed or the vial volume was reached (˜7 mL). The vials were quickly cooled to 4° C. or slowly cooled by 20° C./hour as in the single-solvent recrystallizations. The resulting solids were isolated by centrifuge filtration. The samples without precipitation were evaporated to dryness under a gentle stream of nitrogen gas as an additional attempt to obtain solid. All obtained solids were analyzed by XRD to determine the solid form. […]

[3] = Particle size analysis (Malvern particle sizer, dry method; optical microscopy); assay type: physicochemical; settings: for Size range / birefringence / crystal shape: polarized-light microscopic images
Procedure: Particle size was first analyzed with optical microscopy.
Particle size was also analyzed with a dry-method using a Malvern 300 particle sizer equipped with a standard energy venturi and utilizing 2.5 bar, 3.0 bar, and 3.5 bar air pressure. […] One possible explanation is that the insufficient energy was provided to break up particle agglomerations.
Based on these findings, particle size analysis was repeated at 2.5, 3.0, and 3.5 bar using a higher energy venturi to ensure the break-up of the potential agglomerates. The detailed particle sizing data using high-energy venturi are summarized in TABLE 26 and in FIGS. 114-119, with FIGS. 114-116 corresponding to 2.5, 3.0, and 3.5 bar analyses of unmilled Form D and FIGS. 117-119 corresponding to 2.5, 3.0, and 3.5 bar analyses of micronized Form D, respectively. While the data remained bimodal, indicating incomplete break-up of particle agglomerates, the D90 of micronized material measured below 6 μm, in closer agreement with the optical analyses.

[4] = Differential scanning calorimetry (DSC): heat of fusion, thermal events; assay type: physicochemical; settings: DSC thermogram of lot
Procedure: Differential scanning calorimetry analyses were performed on each sample “as is.” Unless otherwise specified, samples were weighed in an aluminum pan, covered with a pierced lid, and then crimped and analyzed from 30-300° C. ramped at 10° C./min.
The DSC data were used to determine the heat of fusion for Forms A, B, D, and F, based on their heats of fusion as measured during conversion from Form C.

[5] = Thermal gravimetric analysis (TGA); assay type: physicochemical; settings: TGA thermogram of lot
Procedure: Thermal gravimetric analyses were performed on each sample “as is.” Unless otherwise noted, samples were weighed in an alumina crucible and analyzed from 30-350° C. at 10° C./min.
Form C weight loss at 39° C.-50° C. likely reflected methanol loss.

[6] = Moisture-sorption analysis (DVS); assay type: physicochemical; settings: dynamic vapor sorption
Procedure: Gravimetric moisture sorption experiment was performed on all materials by first holding the sample at 40% RH and 25° C. until an equilibrium weight was reached or for a maximum of 4 h. The sample was then subjected to an isothermal (25° C.) adsorption scan from 40% to 90% R H in steps of 10% RH. The sample was allowed to equilibrate to an asymptotic weight at each point for a maximum of 4 h. Following adsorption, a desorption scan from 90% to 0% RH (at 25° C.) was run in steps of −10% R H allowing a maximum of 4 h for equilibration to an asymptotic weight. An adsorption scan was then performed from 0% RH to 40% RH in steps of +10% R H. The sample was then dried for more than 2 h at 60° C. 0% R H and the resulting solid analyzed by XRD.
FIGS. 88-92 provide physical analyses of lot 1. […] FIG. 90 provides a modulated DSC thermogram of lot 1, and identifies a glass transition temperature midpoint of around 48.5° C. […] FIG. 92 provides dynamic vapor sorption plots of lot 1, indicating 2.49 weight percent water vapor adsorption at 90% relative humidity, 1.25 weight percent water vapor adsorption at 60% relative humidity, and close to complete water vapor desorption at 0% relative humidity.
FIG. 95 provides polarized-light microscope images of lot 2 at 200× magnification, with 50 and 100 μm scales shown. […] FIG. 96 provides dynamic vapor sorption plots of lot 2, indicating 3.99 weight percent water vapor adsorption at 60% relative humidity, 4.12 weight percent water vapor adsorption at 90% relative humidity, and close to complete water vapor desorption at 0% relative humidity.

[7] = Bulk and tapped density (tap density tester); assay type: physicochemical; settings: listed as micronixed form
From the text: Before milling, Form D was screened through a 30-micron mesh sieve. Then, Form D micronized using a 2-inch jet mill 70 psig feed pressure, 40 psig grinding pressure, and a 4.3 g/min powder feed rate. The micronization process provided a 69% yield and 95.6% crystallinity relative to the unmilled material.

SMILES	Size range [3]	birefringence [3]	crystal shape [3]	Endotherm (likely dehydration of bound water) [4]	Exotherm (crystallization of Form B) [4]	wt change at 233° C. [5] [% wt change]	wt change below 100° C. [5] [% wt change]	water vapor adsorption at 60% RH [6]	water vapor adsorption at 90% RH [6]	further results
CC[C@H](C)C(=O)N1CCC(NC(=O)Nc2ccc(OC(F)(F)F)c(F)c2)CC1 [C (50%) + D (50%)]	–	–	–	–	–	–	–	–	–	XRD Pattern at Equilibrium [1]: C (major) + D (minor)
CC[C@H](C)C(=O)N1CCC(NC(=O)Nc2ccc(OC(F)(F)F)c(F)c2)CC1 [Formula (I) Form C]	–	–	–	–	–	–	–	–	–	Formula (I) Product Form ([2]; Acetone (0.1)/n-Heptane (0.4), 50° C., Slow, ppt/evaporate): B + E; Formula (I) Product Form ([2]; DMSO (0.1)/Water (0.05), 70° C., Slow, ppt/filtered): D + F; Formula (I) Product Form ([2]; EtOH (0.1)/c-Hexane (6), 70° C., Slow, clear/): F + H; Formula (I) Product Form ([2]; IPA (0.1)/c-Hexane (2), 70° C., Fast, ppt/filtered): H + F; Formula (I) Product Form ([2]; NMP (0.1)/c-Hexane (6), 70° C., Slow, clear/evaporate): D + F
CC[C@H](C)C(=O)N1CCC(NC(=O)Nc2ccc(OC(F)(F)F)c(F)c2)CC1 [lot 1]	Size range; 5-80 μm;	Birefringent	Irregular plate;	63 °C	115 °C (crystallization of	99	0	60% RH 1.25 wt %	90% RH 2.49 wt %	–
CC[C@H](C)C(=O)N1CCC(NC(=O)Nc2ccc(OC(F)(F)F)c(F)c2)CC1 [lot 2]	Size range; 5-200 μm;	Birefringent	Irregular plate;	79 °C (likely dehydration of	117 °C (crystallization of	96	2.9	60% RH 3.99 wt %	90% RH 4.12 wt %	Endotherm (melting of Form A) [4]: 111 °C (melting of Form A),
CC[C@H](C)C(=O)N1CCC(NC(=O)Nc2ccc(OC(F)(F)F)c(F)c2)CC1 [micronized Form D, (S)-1-(3-fluoro-4-(trifluoromethoxy)phenyl)-3-(1-(2-methylbutanoyl)piperidin-4-yl)urea]	–	–	–	–	–	–	–	–	–	D90 particle size ([3]; higher energy venturi, 2.5, 3.0 and 3.5 bar): below 6 μm; bulk density [7]: 0.20 g/mL; tapped density [7]: 0.22 g/mL
